Source: patent US20250059171A1 (Hoffmann-La Roche Inc., priority 2021, published 2025)
pIC50: −log10 of the molar value.

Assays:
SARS-CoV 3CLpro = SARS-CoV 3CLpro (Severe acute respiratory syndrome coronavirus, UniProt P0C6X7); test: biochemical
MERS-CoV 3CLpro = MERS-CoV 3CLpro (Middle East respiratory syndrome-related coronavirus, UniProt K9N7C7); test: biochemical
HCoV-229E 3CLpro = HCoV-229E 3CLpro (Human coronavirus 229E, UniProt P0C6X1); test: HCoV-229E 3CLpro inhibition assay (FRET); type: biochemical
Sequence of HCoV-229E 3CLpro (P0C6X1 2966-3267): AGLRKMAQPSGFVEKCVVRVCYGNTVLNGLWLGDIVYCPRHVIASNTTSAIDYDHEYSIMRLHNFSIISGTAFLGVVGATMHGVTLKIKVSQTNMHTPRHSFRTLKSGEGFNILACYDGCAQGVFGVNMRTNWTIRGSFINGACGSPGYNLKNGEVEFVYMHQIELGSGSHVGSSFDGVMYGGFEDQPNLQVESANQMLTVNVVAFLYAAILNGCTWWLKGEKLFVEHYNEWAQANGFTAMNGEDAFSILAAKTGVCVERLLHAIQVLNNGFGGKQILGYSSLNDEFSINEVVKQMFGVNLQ

SARS-CoV-2 3CLpro = SARS-CoV-2 3CLpro (Severe acute respiratory syndrome coronavirus 2, UniProt P0DTD1); test: biochemical

Sequence of MERS-CoV 3CLpro (K9N7C7 3248-3553): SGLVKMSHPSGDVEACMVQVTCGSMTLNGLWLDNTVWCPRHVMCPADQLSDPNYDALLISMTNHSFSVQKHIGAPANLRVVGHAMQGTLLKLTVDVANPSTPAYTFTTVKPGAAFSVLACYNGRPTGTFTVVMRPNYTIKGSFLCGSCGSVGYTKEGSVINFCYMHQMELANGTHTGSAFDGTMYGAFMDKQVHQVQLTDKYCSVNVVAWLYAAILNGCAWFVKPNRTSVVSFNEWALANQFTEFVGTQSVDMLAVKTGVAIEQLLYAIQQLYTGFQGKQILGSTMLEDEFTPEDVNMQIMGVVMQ

Structure (SMILES): CC1(C)[C@@H]2[C@@H](C(=O)NN(C[C@@H]3CCNC3=O)C(=O)[C@@H](F)Cl)N(C(=O)[C@@H](NC(=O)C3(F)CC3)C3CCC3)C[C@@H]21 [Example 157, N-[(1S)-2-[(1R,2S,5S)-2-[[[(2S)-2-chloro-2-fluoro-acetyl]-[[(3S)-2-oxopyrrolidin-3-yl]methyl]amino]carbamoyl]-6,6-dimethyl-3-azabicyclo[3.1.0]hexan-3-yl]-1-cyclobutyl-2-oxo-ethyl]-1-fluoro-cyclopropanecarboxamide]
- pIC50 (SARS-CoV 3CLpro): 7.24
- pIC50 (MERS-CoV 3CLpro): 6.83
- pIC50 (HCoV-229E 3CLpro): 7.22
- pIC50 (SARS-CoV-2 3CLpro): 7.36

Structure (SMILES): CC(C)(C)[C@H](NC(=O)[C@@H]1CC1(F)F)C(=O)N1C[C@H](C(F)(F)F)C[C@H]1C(=O)NN(C[C@@H]1CCNC1=O)C(=O)[C@H](F)Cl [Example 158, (1S)—N-[(1S)-1-[(2S,4R)-2-[[[(2R)-2-chloro-2-fluoro-acetyl]-[[(3S)-2-oxopyrrolidin-3-yl]methyl]amino]carbamoyl]-4-(trifluoromethyl)pyrrolidine-1-carbonyl]-2,2-dimethyl-propyl]-2,2-difluoro-cyclopropanecarboxamide]
- pIC50 (SARS-CoV 3CLpro): 7.77
- pIC50 (MERS-CoV 3CLpro): 7.10
- pIC50 (HCoV-229E 3CLpro): 7.47
- pIC50 (SARS-CoV-2 3CLpro): 7.96

Structure (SMILES): CC(C)(C)[C@H](NC(=O)[C@@H]1CC1(F)F)C(=O)N1C[C@H](C(F)(F)F)C[C@H]1C(=O)NN(C[C@@H]1CCNC1=O)C(=O)[C@@H](F)Cl [Example 159, (1S)—N-[(1S)-1-[(2S,4R)-2-[[[(2S)-2-chloro-2-fluoro-acetyl]-[[(3S)-2-oxopyrrolidin-3-yl]methyl]amino]carbamoyl]-4-(trifluoromethyl)pyrrolidine-1-carbonyl]-2,2-dimethyl-propyl]-2,2-difluoro-cyclopropanecarboxamide]
- pIC50 (SARS-CoV 3CLpro): 7.89
- pIC50 (MERS-CoV 3CLpro): 6.99
- pIC50 (HCoV-229E 3CLpro): 7.40
- pIC50 (SARS-CoV-2 3CLpro): 7.89

Structure (SMILES): CC[C@H](C)[C@H](NC(=O)C1(F)CC1)C(=O)N1C[C@H](C(F)(F)F)C[C@H]1C(=O)NN(C[C@@H]1CCNC1=O)C(=O)[C@H](F)Cl [Example 160, N-[(1S,2S)-1-[(2S,4R)-2-[[[(2R)-2-chloro-2-fluoro-acetyl]-[[(3S)-2-oxopyrrolidin-3-yl]methyl]amino]carbamoyl]-4-(trifluoromethyl)pyrrolidine-1-carbonyl]-2-methyl-butyl]-1-fluoro-cyclopropanecarboxamide]
- pIC50 (SARS-CoV 3CLpro): 7.72
- pIC50 (MERS-CoV 3CLpro): 6.98
- pIC50 (HCoV-229E 3CLpro): 7.62
- pIC50 (SARS-CoV-2 3CLpro): 7.89

Structure (SMILES): CC[C@H](C)[C@H](NC(=O)C1(F)CC1)C(=O)N1C[C@H](C(F)(F)F)C[C@H]1C(=O)NN(C[C@@H]1CCNC1=O)C(=O)[C@@H](F)Cl [Example 161, N-[(1S,2S)-1-[(2S,4R)-2-[[[(2S)-2-chloro-2-fluoro-acetyl]-[[(3S)-2-oxopyrrolidin-3-yl]methyl]amino]carbamoyl]-4-(trifluoromethyl)pyrrolidine-1-carbonyl]-2-methyl-butyl]-1-fluoro-cyclopropanecarboxamide]
- pIC50 (SARS-CoV 3CLpro): 7.57
- pIC50 (MERS-CoV 3CLpro): 6.47
- pIC50 (HCoV-229E 3CLpro): 7.00
- pIC50 (SARS-CoV-2 3CLpro): 7.80

Structure (SMILES): CC(C)(C)C[C@H](NC(=O)C1(F)CC1)C(=O)N1C[C@H]2[C@@H]([C@H]1C(=O)NN(C[C@@H]1CCNC1=O)C(=O)[C@H](F)Cl)C2(C)C [Example 162, N-[(1S)-1-[(1R,2S,5S)-2-[[[(2R)-2-chloro-2-fluoro-acetyl]-[[(3S)-2-oxopyrrolidin-3-yl]methyl]amino]carbamoyl]-6,6-dimethyl-3-azabicyclo[3.1.0]hexane-3-carbonyl]-3,3-dimethyl-butyl]-1-fluoro-cyclopropanecarboxamide]
- pIC50 (SARS-CoV 3CLpro): 7.82
- pIC50 (MERS-CoV 3CLpro): 7.03
- pIC50 (HCoV-229E 3CLpro): 7.48
- pIC50 (SARS-CoV-2 3CLpro): 7.92

Structure (SMILES): CC(C)(C)[C@H](NC(=O)C(F)(F)F)C(=O)N1C[C@@H]2CCC[C@@H]2[C@H]1C(=O)NN(C[C@@H]1CCCNC1=O)C(=O)[C@H](F)Cl [Example 164a, N-[(1S)-1-[(3S,3aS,6aR)-3-[[[(2R)-2-chloro-2-fluoro-acetyl]-[[(3S)-2-oxo-3-piperidyl]methyl]amino]carbamoyl]-3,3a,4,5,6,6a-hexahydro-1H-cyclopenta[c]pyrrole-2-carbonyl]-2,2-dimethyl-propyl]-2,2,2-trifluoro-acetamide]
- pIC50 (SARS-CoV 3CLpro): 7.80
- pIC50 (MERS-CoV 3CLpro): 6.61
- pIC50 (HCoV-229E 3CLpro): 7.01
- pIC50 (SARS-CoV-2 3CLpro): 8.10

Structure (SMILES): CC[C@H](C)[C@H](NC(=O)C1(F)CC1)C(=O)N1C[C@H]2[C@@H]([C@H]1C(=O)NN(C[C@@H]1CCCNC1=O)C(=O)[C@H](F)Cl)C2(C)C [Example 166a, N-[(1S,2S)-1-[(1R,2S,5S)-2-[[[(2R)-2-chloro-2-fluoro-acetyl]-[[(3S)-2-oxo-3-piperidyl]methyl]amino]carbamoyl]-6,6-dimethyl-3-azabicyclo[3.1.0]hexane-3-carbonyl]-2-methyl-butyl]-1-fluoro-cyclopropanecarboxamide]
- pIC50 (SARS-CoV 3CLpro): 7.74
- pIC50 (MERS-CoV 3CLpro): 6.64
- pIC50 (HCoV-229E 3CLpro): 7.33
- pIC50 (SARS-CoV-2 3CLpro): 7.89

Structure (SMILES): CC[C@H](C)[C@H](NC(=O)C1(F)CC1)C(=O)N1C[C@H]2[C@@H]([C@H]1C(=O)NN(C[C@H]1CCCNC1=O)C(=O)[C@H](F)Cl)C2(C)C [Example 166b, N-[(1S,2S)-1-[(1R,2S,5S)-2-[[[(2R)-2-chloro-2-fluoro-acetyl]-[[(3R)-2-oxo-3-piperidyl]methyl]amino]carbamoyl]-6,6-dimethyl-3-azabicyclo[3.1.0]hexane-3-carbonyl]-2-methyl-butyl]-1-fluoro-cyclopropanecarboxamide]
- pIC50 (SARS-CoV 3CLpro): 7.52
- pIC50 (MERS-CoV 3CLpro): 6.62
- pIC50 (HCoV-229E 3CLpro): 7.29
- pIC50 (SARS-CoV-2 3CLpro): 7.72

Structure (SMILES): CCC(C)(C)[C@H](NC(=O)C1CC1)C(=O)N1C[C@@H]2CCC[C@@H]2[C@H]1C(=O)NN(C[C@@H]1CCCNC1=O)C(=O)[C@H](F)Cl [Example 167a, N-[(1S)-1-[(3S,3aS,6aR)-3-[[[(2R)-2-chloro-2-fluoro-acetyl]-[[(3S)-2-oxo-3-piperidyl]methyl]amino]carbamoyl]-3,3a,4,5,6,6a-hexahydro-1H-cyclopenta[c]pyrrole-2-carbonyl]-2,2-dimethyl-butyl]cyclopropanecarboxamide]
- pIC50 (SARS-CoV 3CLpro): 7.82
- pIC50 (MERS-CoV 3CLpro): 6.77
- pIC50 (HCoV-229E 3CLpro): 7.28
- pIC50 (SARS-CoV-2 3CLpro): 8.00

Structure (SMILES): CCC(C)(C)[C@H](NC(=O)C1CC1)C(=O)N1C[C@@H]2CCC[C@@H]2[C@H]1C(=O)NN(C[C@H]1CCCNC1=O)C(=O)[C@H](F)Cl [Example 167b, N-[(1S)-1-[(3S,3aS,6aR)-3-[[[(2R)-2-chloro-2-fluoro-acetyl]-[[(3R)-2-oxo-3-piperidyl]methyl]amino]carbamoyl]-3,3a,4,5,6,6a-hexahydro-1H-cyclopenta[c]pyrrole-2-carbonyl]-2,2-dimethyl-butyl]cyclopropanecarboxamide]
- pIC50 (SARS-CoV 3CLpro): 7.39
- pIC50 (MERS-CoV 3CLpro): 5.79
- pIC50 (HCoV-229E 3CLpro): 6.68
- pIC50 (SARS-CoV-2 3CLpro): 7.72

Structure (SMILES): CCC(C)(C)[C@H](NC(=O)C1CC1)C(=O)N1CC(C)(C)C[C@H]1C(=O)NN(C[C@@H]1CCCNC1=O)C(=O)[C@H](F)Cl [Example 168a, N-[(1S)-1-[(2S)-2-[[[(2R)-2-chloro-2-fluoro-acetyl]-[[(3S)-2-oxo-3-piperidyl]methyl]amino]carbamoyl]-4,4-dimethyl-pyrrolidine-1-carbonyl]-2,2-dimethyl-butyl]cyclopropanecarboxamide]
- pIC50 (SARS-CoV 3CLpro): 7.80
- pIC50 (MERS-CoV 3CLpro): 6.54
- pIC50 (HCoV-229E 3CLpro): 6.98
- pIC50 (SARS-CoV-2 3CLpro): 7.96
